Measured values from publication PMC3573263 (Chemical biology & drug design, 2013).
pKd: −log10 of the molar value.

Experiments:
[1] = target: wild-type YopH (Yersinia pestis, UniProt O68720); test: biochemical; type: binding
[2] = target: T1, YopH (Yersinia pestis, UniProt O68720); settings: cited from earlier work
[3] = target: T1, YopH
[4] = target: N-terminus of YopH; settings: read-out: equilibrium dissociation constant; cited from earlier work
[5] = target: YopH N-terminus (Yersinia pestis) (UniProt P08538); test: NMR; settings: cited from earlier work
YopH N-terminus (Yersinia pestis), sequence (P08538 1-129): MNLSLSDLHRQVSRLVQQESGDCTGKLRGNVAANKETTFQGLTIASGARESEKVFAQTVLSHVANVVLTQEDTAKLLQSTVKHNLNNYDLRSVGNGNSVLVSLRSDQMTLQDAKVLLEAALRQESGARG

T1 sequence (O68720 164-468 limits assumed): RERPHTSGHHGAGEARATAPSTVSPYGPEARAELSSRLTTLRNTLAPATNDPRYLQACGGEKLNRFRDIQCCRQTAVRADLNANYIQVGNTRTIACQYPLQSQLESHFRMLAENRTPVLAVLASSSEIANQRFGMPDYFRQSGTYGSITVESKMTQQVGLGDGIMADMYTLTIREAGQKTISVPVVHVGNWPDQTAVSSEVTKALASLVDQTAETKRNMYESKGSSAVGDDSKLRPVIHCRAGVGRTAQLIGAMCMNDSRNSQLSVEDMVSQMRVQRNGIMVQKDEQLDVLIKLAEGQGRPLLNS
wild-type YopH, sequence (O68720 164-468 limits assumed): as above

Compound	koff [1]	kon [1]	ΔG [1]	other results
N[C@@H](Cc1ccc(OP(=O)(O)O)cc1)C(=O)O [L-phosphotyrosine, reference compound]	0.679	0.278 M⁻¹ s⁻¹	-2.2 kcal/mol	pKd [1]: 1.61
O=C(O)c1ccc(/C=N/OCc2ccc(-c3cccc(C(F)(F)P(=O)(O)O)c3)cc2)o1 [compound 3, 5-((1E)-(((4-(3-(difluoro(phosphono)methyl)phenyl)phenyl)methoxy)imino)methyl)furan-2-carboxylic acid]	0.945 (0.13)	44.5 M⁻¹ s⁻¹	–	pKd [1]: 3.62
O=[N+]([O-])c1ccc(OP(=O)(O)O)cc1 [pNPP, para-nitrophenylphosphate]	–	–	–	catalytic activity of YopH toward substrate, lower than the pTyr-containing peptide [2]: 1300 fold
(difluoro((3-(4-((((E)-furan-2-ylmethylidene)amino)oxy)methyl)phenyl)phenyl))methyl) phosphonic acid [compound 2]	2.15 (0.89)	–	−5.28 (0.20) kcal/ mol	–
(difluoro((3-(4-((((E)-furan-3-ylmethylidene)amino)oxy)methyl)phenyl)phenyl))methyl) phosphonic acid [compound 1]	1.95 (0.95)	73.4 (34.8) 1/Ms	−4.88 (0.43) kcal/ mol	inhibition of PTPase activity on microarrayed pTyr-EGFR peptide (in words) [3]: dose-response relationship
DADE-pYLIPQQG	–	–	–	rate constant for dephosphorylation [2]: 2.23e+07 M⁻¹ s⁻¹
DADEpYL [hexapeptide]	–	–	–	pKd [4]: 5.00
EGFR phosphopeptide (from UniProt P00533)	–	–	–	pKd [5]: 5.00
